Results reported in PubChem BioAssay AID330 (DTP/NCI, 2004).
Values joined by “and” are separate entries in the source; they are usually repeats but may differ in a detail not shown here. Equal values may be shown once. Toxic doses and inconclusive results are not listed.

Test system: P388 leukemia ip, CD2F1 mice, survival T/C
Assay: NCI In Vivo Anticancer Drug Screen. Data for tumor model P388 Leukemia (intraperitoneal) in CD2F1 (CDF1) mice
Details: endpoint: median survival time, higher = longer survival
In short: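 Mice carrying the transplanted tumor received test compound or vehicle. Survival was recorded in each group, and the value is the treated-group measurement divided by that of the vehicle-treated control group.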

[1] = dose: 6.25 mg/kg/injection, schedule: Q01DX009 (ip), vehicle: saline
[2] = dose: 50.0 mg/kg/injection, schedule: Q01DX009 (ip), vehicle: saline
[3] = dose: 100.0 mg/kg/injection, schedule: Q01DX009 (ip), vehicle: saline
[4] = dose: 60.0 mg/kg/injection, schedule: Q01DX005 (ip), vehicle: saline with Tween-80
[5] = dose: 120.0 mg/kg/injection, schedule: Q01DX005 (ip), vehicle: saline with Tween-80
[6] = dose: 240.0 mg/kg/injection, schedule: Q01DX005 (ip), vehicle: saline with Tween-80
[7] = dose: 50.0 mg/kg/injection, schedule: Q01DX005 (ip), vehicle: Klucel (hydroxypropylcellulose) (HPC)
[8] = dose: 100.0 mg/kg/injection, schedule: Q01DX005 (ip), vehicle: Klucel (hydroxypropylcellulose) (HPC)
[9] = dose: 200.0 mg/kg/injection, schedule: Q01DX005 (ip), vehicle: Klucel (hydroxypropylcellulose) (HPC)
[10] = dose: 50.0 mg/kg/injection, schedule: Q01DX005 (ip), vehicle: saline with Tween-80
[11] = dose: 100.0 mg/kg/injection, schedule: Q01DX005 (ip), vehicle: saline with Tween-80
[12] = dose: 200.0 mg/kg/injection, schedule: Q01DX005 (ip), vehicle: saline with Tween-80
[13] = dose: 12.5 mg/kg/injection, schedule: Q01DX005 (ip), vehicle: saline
[14] = dose: 25.0 mg/kg/injection, schedule: Q01DX005 (ip), vehicle: saline

COc1c(O)ccc([N+](=O)[O-])c1OC was tested, and the T/C (dose: 12.5 mg/kg/injection, schedule: Q01DX009 (ip), vehicle: other) was 96 % of control, the T/C (dose: 25.0 mg/kg/injection, schedule: Q01DX009 (ip), vehicle: other) was 98 % of control and the T/C (dose: 50.0 mg/kg/injection, schedule: Q01DX009 (ip), vehicle: other) was 105 % of control. The T/C (dose: 100.0 mg/kg/injection, schedule: Q01DX009 (ip), vehicle: other) was 102 % of control and the T/C (dose: 200.0 mg/kg/injection, schedule: Q01DX009 (ip), vehicle: other) was 97 % of control.

With CCOP(O)(=S)OCC.[Ho] the T/C (dose: 100.0 mg/kg/injection, schedule: Q01DX001 (ip), vehicle: Klucel (hydroxypropylcellulose) (HPC)) was 91 % of control, the T/C (dose: 200.0 mg/kg/injection, schedule: Q01DX001 (ip), vehicle: Klucel (hydroxypropylcellulose) (HPC)) was 88 % of control and the T/C (dose: 400.0 mg/kg/injection, schedule: Q01DX001 (ip), vehicle: Klucel (hydroxypropylcellulose) (HPC)) was 90 % of control.

For C1CN2CN3CCN(CN1C3)C2, the T/C [1] was 108 % of control, the T/C [2] was 158 % of control and the T/C [3] was 168 % of control.

In the case of COc1ccc(/C=C2/N=C(c3ccccc3)OC2=O)cc1, the T/C [4] is reported as 93 % of control, the T/C [5] is reported as 93 % of control and the T/C [6] is reported as 87 % of control.

In the case of O=C(Nc1ccc(Cl)c([N+](=O)[O-])c1)Nc1nc2ccccc2s1, the T/C [7] is reported as 98 % of control, the T/C [8] is reported as 86 % of control and the T/C [9] is reported as 87 % of control.

OCCN(CCO)c1ncnc2nc[nH]c12 was tested, and the T/C [10] was 88 % of control, the T/C [11] was 96 % of control and the T/C [12] was 98 % of control.

For CC1=CCC2C(=O)N(c3cc(C)on3)C(=O)C2C1 (stereo not drawn), the T/C [4] was 97 % of control, the T/C [5] was 100 % of control and the T/C [6] was 90 % of control.

With S=C(NCCl)NCc1ccccc1 the T/C [7] was 105 % of control, the T/C [8] was 100 % of control and the T/C [9] was 105 % of control.

In the case of CN1CCC/C1=N\C(=Nc1ccccc1)N1CCCC1, the T/C (dose: 6.25 mg/kg/injection, schedule: Q01DX005 (ip), vehicle: saline) is reported as 105 % of control, the T/C [13] is reported as 102 % of control and the T/C [14] is reported as 103 % of control.

For O=C(CCl)NC(Cc1cccc(F)c1)C(=O)O (stereo not drawn), the T/C (dose: 1.56 mg/kg/injection, schedule: Q01DX009 (ip), vehicle: saline) was 97 % of control, the T/C (dose: 3.12 mg/kg/injection, schedule: Q01DX009 (ip), vehicle: saline) was 97 % of control and the T/C [1] was 100 % of control and 96 % of control.

For CC(=O)/C(=C\c1cccs1)C(=O)CCN(C)C, the T/C (dose: 60.0 mg/kg/injection, schedule: Q01DX005 (ip), vehicle: saline) was 106 % of control and 111 % of control, the T/C (dose: 120.0 mg/kg/injection, schedule: Q01DX005 (ip), vehicle: saline) was 113 % of control and 122 % of control and the T/C (dose: 240.0 mg/kg/injection, schedule: Q01DX005 (ip), vehicle: saline) was 91 % of control.

With CCC[CH2][Sn]1([CH2]CCC)[O]C2C(O)OC(CO)C(O)C2[O]1 (stereo not drawn) the T/C (dose: 1.56 mg/kg/injection, schedule: Q04DX003 (ip), vehicle: saline) was 107 % of control, the T/C (dose: 3.12 mg/kg/injection, schedule: Q04DX003 (ip), vehicle: saline) was 107 % of control and 109 % of control and the T/C (dose: 6.25 mg/kg/injection, schedule: Q04DX003 (ip), vehicle: saline) was 111 % of control.

With Cc1cc(=O)n(-c2ccc([N+](=O)[O-])cc2)c(C)c1C(=O)O the T/C [10] was 98 % of control, the T/C [11] was 103 % of control and the T/C [12] was 106 % of control.

For CS1(C)=NC(=O)C2=C(N=1)c1ccccc1S2(=O)=O, the T/C [4] was 97 % of control, the T/C [5] was 94 % of control and the T/C [6] was 89 % of control.

In the case of CCn1cc(C(=O)O)c(=O)c2ccc(C)[n+](CCSC(=N)N)c21, the T/C (dose: 100.0 mg/kg/injection, schedule: Q04DX002 (ip), vehicle: saline with Tween-80) is reported as 104 % of control, the T/C (dose: 200.0 mg/kg/injection, schedule: Q04DX002 (ip), vehicle: saline with Tween-80) is reported as 99 % of control and the T/C (dose: 400.0 mg/kg/injection, schedule: Q04DX002 (ip), vehicle: saline with Tween-80) is reported as 100 % of control.

For CCn1cnc2c(SC)ncnc21, the T/C (dose: 12.5 mg/kg/injection, schedule: Q01DX009 (ip), vehicle: saline) was 100 % of control, the T/C (dose: 25.0 mg/kg/injection, schedule: Q01DX009 (ip), vehicle: saline) was 100 % of control and the T/C [2] was 95 % of control. For the same molecule, the T/C (dose: 100.0 mg/kg/injection, schedule: Q04DX003 (ip), vehicle: other) was 100 % of control.

In the case of N#CCCCOCCCOCCCOCCCOCCCOCCCC#N, the T/C (dose: 8.75 mg/kg/injection, schedule: Q01DX005 (ip), vehicle: saline with Tween-80) is reported as 102 % of control, the T/C (dose: 17.5 mg/kg/injection, schedule: Q01DX005 (ip), vehicle: saline with Tween-80) is reported as 100 % of control and the T/C (dose: 35.0 mg/kg/injection, schedule: Q01DX005 (ip), vehicle: saline with Tween-80) is reported as 100 % of control. For the same molecule, the T/C [10] was 121 % of control, the T/C (dose: 70.0 mg/kg/injection, schedule: Q01DX005 (ip), vehicle: saline with Tween-80) was 108 % of control and the T/C [12] was 110 % of control.

In the case of C=CCCCn1nnc2ccccc21, the T/C (dose: 100.0 mg/kg/injection, schedule: Q04DX003 (ip), vehicle: saline with Tween-80) is reported as 102 % of control, the T/C (dose: 200.0 mg/kg/injection, schedule: Q04DX003 (ip), vehicle: saline with Tween-80) is reported as 94 % of control and the T/C (dose: 400.0 mg/kg/injection, schedule: Q04DX003 (ip), vehicle: saline with Tween-80) is reported as 86 % of control.

For COc1ccc(Cc2cc3c(cc2O)OCO3)cc1, the T/C (dose: 2.5 mg/kg/injection, schedule: Q01DX009 (ip), vehicle: saline with Tween-80) was 99 % of control, the T/C (dose: 5.0 mg/kg/injection, schedule: Q01DX009 (ip), vehicle: saline with Tween-80) was 101 % of control and the T/C (dose: 10.0 mg/kg/injection, schedule: Q01DX009 (ip), vehicle: saline with Tween-80) was 101 % of control. The T/C (dose: 15.0 mg/kg/injection, schedule: Q01DX005 (ip), vehicle: saline with Tween-80) was 107 % of control, the T/C (dose: 31.0 mg/kg/injection, schedule: Q01DX005 (ip), vehicle: saline with Tween-80) was 102 % of control and the T/C (dose: 62.5 mg/kg/injection, schedule: Q01DX005 (ip), vehicle: saline with Tween-80) was 106 % of control. The T/C (dose: 125.0 mg/kg/injection, schedule: Q01DX005 (ip), vehicle: saline with Tween-80) was 100 % of control and the T/C (dose: 250.0 mg/kg/injection, schedule: Q01DX005 (ip), vehicle: saline with Tween-80) was 102 % of control.

In the case of COC(=O)C1(C(=O)OC)C2C=CCC21 (stereo not drawn), the T/C (dose: 50.0 mg/kg/injection, schedule: Q01DX009 (ip), vehicle: saline with Tween-80) is reported as 96 % of control, the T/C (dose: 100.0 mg/kg/injection, schedule: Q01DX009 (ip), vehicle: saline with Tween-80) is reported as 102 % of control and the T/C (dose: 200.0 mg/kg/injection, schedule: Q01DX009 (ip), vehicle: saline with Tween-80) is reported as 104 % of control.

With Cc1ccc2c(c1)C(=O)C(CN1CCN(C)CC1)CO2 (stereo not drawn) the T/C [2] was 106 % of control, the T/C [3] was 109 % of control and the T/C (dose: 200.0 mg/kg/injection, schedule: Q01DX009 (ip), vehicle: saline) was 99 % of control.

For CC(C)(C)N1CC(COc2ccc(Cl)cc2)OC1=O (stereo not drawn), the T/C (dose: 50.0 mg/kg/injection, schedule: Q01DX009 (ip), vehicle: Klucel (hydroxypropylcellulose) (HPC)) was 99 % of control, the T/C (dose: 100.0 mg/kg/injection, schedule: Q01DX009 (ip), vehicle: Klucel (hydroxypropylcellulose) (HPC)) was 104 % of control and the T/C (dose: 200.0 mg/kg/injection, schedule: Q01DX009 (ip), vehicle: Klucel (hydroxypropylcellulose) (HPC)) was 102 % of control.

For O=C(O)Cc1ccc2c(c1O)C(=O)c1ccccc1C2=O, the T/C [13] was 98 % of control, the T/C [14] was 104 % of control and the T/C [10] was 112 % of control. For the same molecule, the T/C (dose: 50.0 mg/kg/injection, schedule: Q01DX005 (ip), vehicle: saline) was 107 % of control.

In the case of CSCS(=O)C[C@H](CO)NC(=O)/C=C/c1c(C)[nH]c(=O)[nH]c1=O (stereo partly drawn), the T/C (dose: 0.08 mg/kg/injection, schedule: Q01DX009 (ip), vehicle: other) is reported as 97 % of control, the T/C (dose: 0.4 mg/kg/injection, schedule: Q01DX009 (ip), vehicle: water) is reported as 94 % of control and the T/C (dose: 0.5 mg/kg/injection, schedule: Q01DX009 (ip), vehicle: water) is reported as 95 % of control.

With Clc1ccc(-c2csc3nc(-c4cccs4)nn23)cc1 the T/C (dose: 30.0 mg/kg/injection, schedule: Q01DX005 (ip), vehicle: Klucel (hydroxypropylcellulose) (HPC)) was 97 % of control, the T/C (dose: 60.0 mg/kg/injection, schedule: Q01DX005 (ip), vehicle: Klucel (hydroxypropylcellulose) (HPC)) was 95 % of control and the T/C (dose: 120.0 mg/kg/injection, schedule: Q01DX005 (ip), vehicle: Klucel (hydroxypropylcellulose) (HPC)) was 95 % of control. The T/C (dose: 240.0 mg/kg/injection, schedule: Q01DX005 (ip), vehicle: Klucel (hydroxypropylcellulose) (HPC)) was 93 % of control.
